pIC50: −log10 of the molar value.
Columns and labels:
Test in all cases: cells
Format in all cases: functional, cell-based
Settings in all cases: Homo sapiens
[1] = test system: SK-MEL-30;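 note: growth inhibition of SK-MEL-30 cells, determined with a cell viability assay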
Description: SANGER: Inhibition of human SK-MEL-30 cell growth in a cell viability assay.

[2] = test system: A2058;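 note: reduction of A2058 cell growth, read out with a viability assay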
Description: SANGER: Inhibition of human A2058 cell growth in a cell viability assay.

[3] = test system: MDA-MB-361
[4] = test system: NCI-H630;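 note: growth inhibition of NCI-H630 cells, read out with a cell viability assay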
Description: SANGER: Inhibition of human NCI-H630 cell growth in a cell viability assay.

[5] = test system: FaDu;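 note: cell viability readout of growth inhibition in FaDu cells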
Description: SANGER: Inhibition of human FADU cell growth in a cell viability assay.

[6] = test system: HSC-3
Description: SANGER: Inhibition of human HSC-3 cell growth in a cell viability assay.

[7] = test system: 8305C
Description: SANGER: Inhibition of human 8305C cell growth in a cell viability assay.

[8] = test system: SW1783;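 note: cell growth inhibition measured with a viability assay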
Description: SANGER: Inhibition of human SW1783 cell growth in a cell viability assay.

[9] = test system: SN12C;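 note: growth inhibition of human SN12C cells, measured by a cell viability assay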
Description: SANGER: Inhibition of human SN12C cell growth in a cell viability assay.

[10] = test system: BEN;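 note: growth inhibition of the BEN cell line, read out with a cell viability assay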
Description: SANGER: Inhibition of human BEN cell growth in a cell viability assay.

[11] = test system: COLO-680N;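 note: cell viability assay used to measure inhibition of COLO-680N cell growth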
Description: SANGER: Inhibition of human COLO-680N cell growth in a cell viability assay.

[12] = test system: CAPAN-1;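 note: growth suppression of CAPAN-1 cells, read out by a cell viability assay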
Description: SANGER: Inhibition of human CAPAN-1 cell growth in a cell viability assay.

[13] = test system: UACC-893
Description: SANGER: Inhibition of human UACC-893 cell growth in a cell viability assay.

[14] = test system: SK-OV-3;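 note: growth inhibition of SK-OV-3 human cells, read out with a cell viability assay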
Description: SANGER: Inhibition of human SK-OV-3 cell growth in a cell viability assay.

[15] = test system: UMC-11;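 note: growth inhibition of UMC-11 cells, read out with a cell viability assay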
Description: SANGER: Inhibition of human UMC-11 cell growth in a cell viability assay.

[16] = test system: NB12;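 note: growth inhibition of human NB12 cells, read out by a cell viability assay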
Description: SANGER: Inhibition of human NB12 cell growth in a cell viability assay.

[17] = test system: NCI-H1793;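 note: cell growth inhibition, read out by a cell viability assay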
Description: SANGER: Inhibition of human NCI-H1793 cell growth in a cell viability assay.

[18] = test system: HCC1569;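 note: growth inhibition of human HCC1569 cells, read out with a cell viability assay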
Description: SANGER: Inhibition of human HCC1569 cell growth in a cell viability assay.

[19] = test system: SiHa;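 note: Viability-based readout of growth inhibition in SiHa cells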
Description: SANGER: Inhibition of human SiHa cell growth in a cell viability assay.

[20] = test system: SCC-4;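 note: growth inhibition of human SCC-4 cells, read out as cell viability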
Description: SANGER: Inhibition of human SCC-4 cell growth in a cell viability assay.

[21] = test system: SW1990;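 note: cell growth inhibition determined with a viability assay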
Description: SANGER: Inhibition of human SW1990 cell growth in a cell viability assay.

[22] = test system: MFE-280;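 note: growth inhibition of MFE-280 cells, determined with a cell viability readout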
Description: SANGER: Inhibition of human MFE-280 cell growth in a cell viability assay.

[23] = test system: HCT-15;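 note: cell viability readout, IC50 reflecting suppression of HCT-15 cell growth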
Description: SANGER: Inhibition of human HCT-15 cell growth in a cell viability assay.

[24] = test system: BFTC-905
Description: SANGER: Inhibition of human BFTC-905 cell growth in a cell viability assay.

[25] = test system: MDA-MB-415
[26] = test system: NCI-H2170;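 note: cell viability assay measuring growth inhibition of human NCI-H2170 cancer cells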
Description: SANGER: Inhibition of human NCI-H2170 cell growth in a cell viability assay.

[27] = test system: SW1088;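 note: growth inhibition of human SW1088 cells, read out by a cell viability assay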
Description: SANGER: Inhibition of human SW1088 cell growth in a cell viability assay.

[28] = test system: SF-295;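 note: growth inhibition of SF-295 cells, read out with a cell viability assay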
Description: SANGER: Inhibition of human SF295 cell growth in a cell viability assay.

[29] = test system: D-392MG
[30] = test system: 639-V;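 note: growth inhibition of 639-V cells, read out with a cell viability assay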
Description: SANGER: Inhibition of human 639-V cell growth in a cell viability assay.

[31] = test system: VMRC-RCZ;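 note: growth inhibition measured with a cell viability assay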
Description: SANGER: Inhibition of human VMRC-RCZ cell growth in a cell viability assay.

[32] = test system: D-247MG
Description: SANGER: Inhibition of human D-247MG cell growth in a cell viability assay.

[33] = test system: HSC-2;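 note: growth inhibition of human HSC-2 cells, read out by a cell viability assay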
Description: SANGER: Inhibition of human HSC-2 cell growth in a cell viability assay.

[34] = test system: HO-1-N-1;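 note: growth inhibition of human HO-1-N-1 cells, read out with a cell viability assay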
Description: SANGER: Inhibition of human HO-1-N-1 cell growth in a cell viability assay.

[35] = test system: NCI-H1623;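 note: cell viability assay used as the read-out for growth inhibition of NCI-H1623 cells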
Description: SANGER: Inhibition of human NCI-H1623 cell growth in a cell viability assay.

[36] = test system: G-401
Description: SANGER: Inhibition of human G-401 cell growth in a cell viability assay.

[37] = test system: SCC-9;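 note: Read-out is a cell viability assay, with values giving inhibition of cell growth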
Description: SANGER: Inhibition of human SCC-9 cell growth in a cell viability assay.

[38] = test system: ACHN;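 note: cell viability read-out used to gauge how strongly growth of human ACHN cells is suppressed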
Description: SANGER: Inhibition of human ACHN cell growth in a cell viability assay.

[39] = test system: CaR-1;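 note: growth inhibition of human CaR-1 cancer cells, read out with a cell viability assay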
Description: SANGER: Inhibition of human CaR-1 cell growth in a cell viability assay.

[40] = test system: SW948;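 note: growth inhibition of SW948 cells, read out with a cell viability assay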
Description: SANGER: Inhibition of human SW948 cell growth in a cell viability assay.

[41] = test system: Capan-2;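 note: Capan-2 cell growth inhibition, read out with a viability assay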
Description: SANGER: Inhibition of human Capan-2 cell growth in a cell viability assay.

[42] = test system: DoTc2-4510
[43] = test system: U-118-MG
Description: SANGER: Inhibition of human U-118-MG cell growth in a cell viability assay.

[44] = test system: SK-N-AS;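 note: growth inhibition of human SK-N-AS cells, measured with a cell viability assay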
Description: SANGER: Inhibition of human SK-N-AS cell growth in a cell viability assay.

[45] = test system: NCI-H358;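 note: growth inhibition of NCI-H358 human cells, read out with a cell viability assay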
Description: SANGER: Inhibition of human NCI-H358 cell growth in a cell viability assay.

[46] = test system: Calu-3;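 note: growth inhibition of human Calu-3 cells, determined with a cell viability assay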
Description: SANGER: Inhibition of human Calu-3 cell growth in a cell viability assay.

[47] = test system: BT-20;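 note: cell viability assay measuring suppression of growth in human BT-20 cells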
Description: SANGER: Inhibition of human BT-20 cell growth in a cell viability assay.

[48] = test system: NY
Description: SANGER: Inhibition of human NY cell growth in a cell viability assay.

[49] = test system: 23132-87
Description: SANGER: Inhibition of human 23132-87 cell growth in a cell viability assay.

[50] = test system: NCI-H596;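 note: growth inhibition of NCI-H596 cells, read out with a cell viability assay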
Description: SANGER: Inhibition of human NCI-H596 cell growth in a cell viability assay.

[51] = test system: 5637
Description: SANGER: Inhibition of human 5637 cell growth in a cell viability assay.

[52] = test system: SW13;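 note: IC50 is inhibition of SW13 cell growth, read out with a cell viability assay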
Description: SANGER: Inhibition of human SW13 cell growth in a cell viability assay.

[53] = test system: NCI-H28;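 note: growth inhibition of human NCI-H28 cells, read out as cell viability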
Description: SANGER: Inhibition of human NCI-H28 cell growth in a cell viability assay.

[54] = test system: 769-P
Description: SANGER: Inhibition of human 769-P cell growth in a cell viability assay.

[55] = test system: HT-1376
Description: SANGER: Inhibition of human HT-1376 cell growth in a cell viability assay.

Question: `Cn1cc(/C=C2\C(=O)Nc3cccnc32)c2ccccc21` was tested. Which pIC50 [1] did it give?
Answer: Its pIC50 is under 5.70.

Question: What about the pIC50 [2] of the same molecule?
Answer: The pIC50 was under 5.70.

Question: What about the pIC50 [3] of the same molecule?
Answer: Its pIC50 is under 5.70.

Question: What about the pIC50 [4] of the same molecule?
Answer: The pIC50 was under 5.70.

Question: What about the pIC50 [5] of the same molecule?
Answer: The pIC50 was under 5.70.

Question: And the pIC50 [6]?
Answer: The pIC50 was under 5.70.

Question: What about the pIC50 [7] of the same molecule?
Answer: Its pIC50 is under 5.70.

Question: What about the pIC50 [8] of the same molecule?
Answer: Its pIC50 is under 5.70.

Question: What about the pIC50 [9] of the same molecule?
Answer: The pIC50 was under 5.70.

Question: And the pIC50 [10]?
Answer: Its pIC50 is under 5.70.

Question: And the pIC50 [11]?
Answer: Its pIC50 is under 5.70.

Question: And the pIC50 [12]?
Answer: Its pIC50 is under 5.70.

Question: What about the pIC50 [13] of the same molecule?
Answer: The pIC50 was under 5.70.

Question: What about the pIC50 [14] of the same molecule?
Answer: Its pIC50 is 6.40.

Question: What about the pIC50 [15] of the same molecule?
Answer: The pIC50 was under 5.70.

Question: What about the pIC50 [16] of the same molecule?
Answer: Its pIC50 is under 5.70.

Question: What about the pIC50 [17] of the same molecule?
Answer: The pIC50 was under 5.70.

Question: And the pIC50 [18]?
Answer: The pIC50 was under 5.70.

Question: What about the pIC50 [19] of the same molecule?
Answer: The pIC50 was under 5.70.

Question: What about the pIC50 [20] of the same molecule?
Answer: Its pIC50 is under 5.70.

Question: And the pIC50 [21]?
Answer: The pIC50 was under 5.70.

Question: What about the pIC50 [22] of the same molecule?
Answer: Its pIC50 is under 5.70.

Question: And the pIC50 [23]?
Answer: The pIC50 was under 5.70.

Question: What about the pIC50 [24] of the same molecule?
Answer: The pIC50 was under 5.70.

Question: And the pIC50 [25]?
Answer: The pIC50 was under 5.70.

Question: And the pIC50 [26]?
Answer: The pIC50 was under 5.70.

Question: What about the pIC50 [27] of the same molecule?
Answer: The pIC50 was under 5.70.

Question: And the pIC50 [28]?
Answer: Its pIC50 is under 5.70.

Question: And the pIC50 [29]?
Answer: The pIC50 was under 5.70.

Question: What about the pIC50 [30] of the same molecule?
Answer: Its pIC50 is under 5.70.

Question: And the pIC50 [31]?
Answer: The pIC50 was under 5.70.

Question: And the pIC50 [32]?
Answer: The pIC50 was under 5.70.

Question: And the pIC50 [33]?
Answer: Its pIC50 is under 5.70.

Question: And the pIC50 [34]?
Answer: Its pIC50 is under 5.70.

Question: What about the pIC50 [35] of the same molecule?
Answer: Its pIC50 is under 5.70.

Question: And the pIC50 [36]?
Answer: Its pIC50 is under 5.70.

Question: What about the pIC50 [37] of the same molecule?
Answer: The pIC50 was under 5.70.

Question: And the pIC50 [38]?
Answer: The pIC50 was under 5.70.

Question: And the pIC50 [39]?
Answer: The pIC50 was under 5.70.

Question: What about the pIC50 [40] of the same molecule?
Answer: The pIC50 was under 5.70.

Question: And the pIC50 [41]?
Answer: Its pIC50 is under 5.70.

Question: And the pIC50 [42]?
Answer: Its pIC50 is under 5.70.

Question: And the pIC50 [43]?
Answer: Its pIC50 is under 5.70.

Question: And the pIC50 [44]?
Answer: Its pIC50 is under 5.70.

Question: What about the pIC50 [45] of the same molecule?
Answer: The pIC50 was under 5.70.

Question: And the pIC50 [46]?
Answer: Its pIC50 is under 5.70.

Question: And the pIC50 [47]?
Answer: Its pIC50 is under 5.70.

Question: What about the pIC50 [48] of the same molecule?
Answer: Its pIC50 is under 5.70.

Question: What about the pIC50 [49] of the same molecule?
Answer: Its pIC50 is under 5.70.

Question: And the pIC50 [50]?
Answer: The pIC50 was under 5.70.

Question: And the pIC50 [51]?
Answer: Its pIC50 is under 5.70.

Question: What about the pIC50 [52] of the same molecule?
Answer: The pIC50 was under 5.70.

Question: And the pIC50 [53]?
Answer: Its pIC50 is under 5.70.

Question: What about the pIC50 [54] of the same molecule?
Answer: Its pIC50 is under 5.70.

Question: And the pIC50 [55]?
Answer: Its pIC50 is under 5.70.

Question: `COc1cc(Nc2c(C#N)cnc3cc(OCCCN4CCN(C)CC4)c(OC)cc23)c(Cl)cc1Cl` [BOSUTINIB] was tested. Which pIC50 [1] did it give?
Answer: Its pIC50 is under 5.70.

Question: What about the pIC50 [2] of the same molecule?
Answer: The pIC50 was under 5.70.

Question: And the pIC50 [3]?
Answer: Its pIC50 is under 5.70.

Question: What about the pIC50 [4] of the same molecule?
Answer: The pIC50 was under 5.70.

Question: What about the pIC50 [5] of the same molecule?
Answer: The pIC50 was under 5.70.

Question: And the pIC50 [6]?
Answer: Its pIC50 is 5.95.

Question: And the pIC50 [7]?
Answer: The pIC50 was under 5.70.

Question: What about the pIC50 [8] of the same molecule?
Answer: Its pIC50 is under 5.70.

Question: And the pIC50 [9]?
Answer: The pIC50 was under 5.70.

Question: What about the pIC50 [10] of the same molecule?
Answer: Its pIC50 is under 5.70.

Question: What about the pIC50 [11] of the same molecule?
Answer: The pIC50 was under 5.70.

Question: And the pIC50 [12]?
Answer: Its pIC50 is under 5.70.

Question: What about the pIC50 [13] of the same molecule?
Answer: The pIC50 was under 5.70.

Question: And the pIC50 [14]?
Answer: Its pIC50 is under 5.70.

Question: What about the pIC50 [15] of the same molecule?
Answer: Its pIC50 is under 5.70.

Question: What about the pIC50 [16] of the same molecule?
Answer: Its pIC50 is under 5.70.

Question: What about the pIC50 [17] of the same molecule?
Answer: The pIC50 was under 5.70.

Question: And the pIC50 [18]?
Answer: The pIC50 was under 5.70.

Question: What about the pIC50 [19] of the same molecule?
Answer: The pIC50 was under 5.70.

Question: What about the pIC50 [20] of the same molecule?
Answer: The pIC50 was under 5.70.

Question: And the pIC50 [21]?
Answer: Its pIC50 is under 5.70.

Question: And the pIC50 [22]?
Answer: The pIC50 was under 5.70.

Question: What about the pIC50 [23] of the same molecule?
Answer: Its pIC50 is under 5.70.

Question: And the pIC50 [24]?
Answer: The pIC50 was under 5.70.

Question: And the pIC50 [25]?
Answer: The pIC50 was under 5.70.

Question: And the pIC50 [26]?
Answer: The pIC50 was under 5.70.

Question: What about the pIC50 [27] of the same molecule?
Answer: The pIC50 was under 5.70.

Question: And the pIC50 [28]?
Answer: Its pIC50 is under 5.70.

Question: And the pIC50 [29]?
Answer: The pIC50 was under 5.70.

Question: What about the pIC50 [30] of the same molecule?
Answer: The pIC50 was under 5.70.

Question: What about the pIC50 [31] of the same molecule?
Answer: The pIC50 was under 5.70.

Question: What about the pIC50 [32] of the same molecule?
Answer: The pIC50 was under 5.70.

Question: What about the pIC50 [33] of the same molecule?
Answer: The pIC50 was under 5.70.

Question: And the pIC50 [34]?
Answer: Its pIC50 is 5.90.

Question: And the pIC50 [35]?
Answer: Its pIC50 is under 5.70.

Question: What about the pIC50 [36] of the same molecule?
Answer: The pIC50 was under 5.70.

Question: What about the pIC50 [37] of the same molecule?
Answer: Its pIC50 is under 5.70.

Question: What about the pIC50 [38] of the same molecule?
Answer: Its pIC50 is 6.27.

Question: What about the pIC50 [39] of the same molecule?
Answer: Its pIC50 is under 5.70.

Question: And the pIC50 [40]?
Answer: The pIC50 was under 5.70.

Question: What about the pIC50 [41] of the same molecule?
Answer: The pIC50 was under 5.70.

Question: What about the pIC50 [42] of the same molecule?
Answer: Its pIC50 is under 5.70.

Question: And the pIC50 [43]?
Answer: Its pIC50 is under 5.70.

Question: What about the pIC50 [44] of the same molecule?
Answer: The pIC50 was under 5.70.

Question: What about the pIC50 [45] of the same molecule?
Answer: Its pIC50 is under 5.70.

Question: What about the pIC50 [46] of the same molecule?
Answer: The pIC50 was under 5.70.

Question: What about the pIC50 [47] of the same molecule?
Answer: The pIC50 was under 5.70.

Question: What about the pIC50 [48] of the same molecule?
Answer: Its pIC50 is under 5.70.

Question: What about the pIC50 [49] of the same molecule?
Answer: Its pIC50 is under 5.70.

Question: And the pIC50 [50]?
Answer: The pIC50 was under 5.70.

Question: What about the pIC50 [51] of the same molecule?
Answer: The pIC50 was 5.94.

Question: And the pIC50 [52]?
Answer: Its pIC50 is 6.13.

Question: What about the pIC50 [53] of the same molecule?
Answer: Its pIC50 is under 5.70.

Question: And the pIC50 [54]?
Answer: The pIC50 was 5.77.

Question: And the pIC50 [55]?
Answer: Its pIC50 is 5.78.

Reference: ChEMBL document CHEMBL1201861, “Genomics of Drug Sensitity in Cancer screening data, Wellcome Trust Sanger Institute”
